By inhibition is commonly meant the share of the control response that was lost under treatment. Broadly, the IC50 is the concentration needed to halve the response being measured. Broadly, the half-life is the time in which the quantity being followed falls by half.

These results are taken from ChEMBL document CHEMBL4627346, “Ultrasound assisted rapid synthesis of mefenamic acid based indole derivatives under ligand free Cu-catalysis: Their pharmacological evaluation” (Bioorg Med Chem Lett, 2020).

Series [1] addresses T1, 3',5'-cyclic-AMP phosphodiesterase 4B (Homo sapiens, UniProt Q07343). Put plainly: Inhibition of recombinant human PDE4B expressed in baculovirus infected Sf9 cells at 10 uM using [3H] cAMP as substrate after 30 min by scintillation proximity assay relative to control. Background: SPA uses beads or plates that emit light when radiolabelled molecules are held near them.
The next series concerns CAL-27. Put plainly: Antiproliferative activity against human CAL27 cells assessed as growth inhibition at 10 uM incubated for 72 hrs by sulforhodamine B assay. Conditions: CAL-27, 72 h, read-out: GI. The format is functional. On the technique in general: Sulforhodamine B stains cellular protein and so reports cell mass.
The target of series [2] is T2, 3',5'-cyclic-AMP phosphodiesterase 4D (Homo sapiens, UniProt Q08499). Briefly: Inhibition of PDE4D2 (unknown origin) at 30 uM relative to control.
The target of series [3] is T1, 3',5'-cyclic-AMP phosphodiesterase 4B. Put plainly: Inhibition of recombinant human PDE4B expressed in baculovirus infected Sf9 cells using [3H] cAMP as substrate after 30 min by scintillation proximity assay.
The species entered for another series is Homo sapiens. Briefly: Selectivity ratio of inhibition of PDE4D2 (unknown origin) to inhibition of recombinant human PDE4B expressed in baculovirus infected Sf9 cells using [3H] cAMP as substrate after 30 min.
Another series has as its target Phosphodiesterase 4 (Homo sapiens, UniProt P27815+Q08499+Q07343+Q08493). Put plainly: Inhibition of PDE4 (unknown origin) assessed as inhibition of TNF-alpha release. Type of series: protein assay.
The nature of series [4]: Metabolic stability in rat liver microsomes assessed as parent compound remaining at 5 uM after 60 mins. The format is ADME, Microsome. The conditions noted are these: read-out: Stability. A general note: Liver microsomes are vesicles of endoplasmic reticulum, rich in cytochrome P450 enzymes.
A short description of series [5]: Half life in rat liver microsomes at 5 uM incubated for 60 mins. Type of series: ADME, Microsome.
Series [6] is described as follows: Intrinsic clearance in rat liver microsomes at 5 uM after 60 mins. Type of series: ADME, Microsome. Conditions: read-out: CLH.
In series [7] the target is T2, 3',5'-cyclic-AMP phosphodiesterase 4D. Put plainly: Inhibition of PDE4D2 (unknown origin) at 10 uM relative to control.
Series [8] shares this target. Briefly: Inhibition of PDE4D2 (unknown origin) at 10 nM relative to control.
The target in series [9] is T1, 3',5'-cyclic-AMP phosphodiesterase 4B. Conditions: Sf9, 10 nM.
Description: Inhibition of recombinant human PDE4B expressed in baculovirus infected Sf9 cells at 10 nM using [3H] cAMP as substrate after 30 min by scintillation proximity assay relative to control

T2 sequence (Q08499 whole entry): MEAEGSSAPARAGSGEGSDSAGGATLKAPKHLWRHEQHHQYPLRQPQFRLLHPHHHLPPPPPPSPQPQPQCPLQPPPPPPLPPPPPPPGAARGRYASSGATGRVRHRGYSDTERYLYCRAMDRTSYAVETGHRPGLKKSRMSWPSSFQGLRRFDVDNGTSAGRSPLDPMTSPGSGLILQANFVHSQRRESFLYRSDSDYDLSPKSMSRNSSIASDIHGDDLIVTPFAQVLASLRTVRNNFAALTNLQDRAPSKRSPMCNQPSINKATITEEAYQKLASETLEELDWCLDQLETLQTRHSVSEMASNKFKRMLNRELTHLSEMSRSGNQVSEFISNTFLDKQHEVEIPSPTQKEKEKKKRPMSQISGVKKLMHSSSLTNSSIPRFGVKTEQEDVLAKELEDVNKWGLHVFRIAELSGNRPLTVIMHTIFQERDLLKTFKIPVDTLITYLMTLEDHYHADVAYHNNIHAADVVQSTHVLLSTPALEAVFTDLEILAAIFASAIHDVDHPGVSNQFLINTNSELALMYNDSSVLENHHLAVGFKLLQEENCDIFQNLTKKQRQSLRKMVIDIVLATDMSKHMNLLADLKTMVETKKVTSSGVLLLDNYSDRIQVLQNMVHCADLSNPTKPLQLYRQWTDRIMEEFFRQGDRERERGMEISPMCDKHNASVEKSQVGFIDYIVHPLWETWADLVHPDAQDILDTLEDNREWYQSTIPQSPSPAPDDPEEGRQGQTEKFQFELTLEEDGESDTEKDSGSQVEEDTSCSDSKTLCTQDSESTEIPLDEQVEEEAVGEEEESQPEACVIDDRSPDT
T1 sequence (Q07343 whole entry): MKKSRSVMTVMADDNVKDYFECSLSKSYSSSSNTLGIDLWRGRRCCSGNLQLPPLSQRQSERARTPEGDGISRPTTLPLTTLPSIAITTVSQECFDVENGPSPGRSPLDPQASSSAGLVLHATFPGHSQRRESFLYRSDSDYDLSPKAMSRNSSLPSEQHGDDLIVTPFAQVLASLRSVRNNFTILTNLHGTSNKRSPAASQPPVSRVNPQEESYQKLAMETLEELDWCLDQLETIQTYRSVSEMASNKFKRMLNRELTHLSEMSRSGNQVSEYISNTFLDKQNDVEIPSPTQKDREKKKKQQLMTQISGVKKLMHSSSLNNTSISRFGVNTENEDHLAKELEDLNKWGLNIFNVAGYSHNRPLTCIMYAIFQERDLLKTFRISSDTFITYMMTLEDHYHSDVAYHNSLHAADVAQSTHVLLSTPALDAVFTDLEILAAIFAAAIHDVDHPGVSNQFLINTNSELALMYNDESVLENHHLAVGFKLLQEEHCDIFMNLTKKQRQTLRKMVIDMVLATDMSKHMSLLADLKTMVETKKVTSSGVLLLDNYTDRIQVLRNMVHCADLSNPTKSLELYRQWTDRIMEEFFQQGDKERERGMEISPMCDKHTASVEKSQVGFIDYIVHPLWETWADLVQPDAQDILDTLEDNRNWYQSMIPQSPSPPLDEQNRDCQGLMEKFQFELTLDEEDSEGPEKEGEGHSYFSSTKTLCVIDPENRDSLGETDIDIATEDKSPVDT

In the case of `Cc1ccc(S(=O)(=O)n2c(COCc3ccccc3Nc3cccc(C)c3C)cc3cc(C)cc(C)c32)cc1`, in series [1], the inhibition was 23.1%.
For `Cc1ccc(S(=O)(=O)n2c(COCc3ccccc3Nc3cccc(C)c3C)cc3cc(F)ccc32)cc1`, the inhibition in [1] turned out to be 34.6%.
In the case of `Cc1cccc(Nc2ccccc2COCc2cc3cc(F)ccc3n2S(C)(=O)=O)c1C`, the inhibition of growth at 10 µM in the series with CAL-27 was 55.6%. Also, the inhibition in series [1] is 68%; on Phosphodiesterase 4 it was “Dose-dependent effect”. The same molecule showed an inhibition at 30 µM in series [2] of 42%. In addition, the IC50 was found to be 1.34 µM in series [3] and 5.81 µM on Phosphodiesterase 4. Besides, in the series filed under Homo sapiens, the Selectivity ratio amounted to 4.5. Moreover, the remaining at 1 h, 5 µM in series [4] stood at 64.9%. This molecule also had a half-life at 5 µM in [5] of 1.83 h. Besides, the microsomal CLint at 5 µM in [6] came to 25.2 µL/min/mg. This molecule also came in with an inhibition at 10 µM in [7] of 15%.
As for `Cc1ccc(S(=O)(=O)n2c(COCc3ccccc3Nc3cccc(C)c3C)cc3cc(C)ccc32)cc1`, the inhibition in [1] turned out to be 36.2%.
On to `Cc1cccc(Nc2ccccc2COCc2cc3cc(Cl)ccc3n2S(C)(=O)=O)c1C`, for which the inhibition in [1] amounted to 54.9%. In series [2], this molecule showed an inhibition at 30 µM of 33.6%. The IC50 in series [3] is 4.48 µM.
Turning to `Cc1ccc2c(c1)cc(COCc1ccccc1Nc1cccc(C)c1C)n2S(C)(=O)=O`, the inhibition in series [1] turned out to be 55.1%. Also, 30 µM produced 38.9% inhibition in series [2]. In addition, the IC50 in series [3] came to 4.13 µM.
On to `Cc1cccc(Nc2ccccc2C(=O)O)c1C` [MEFENAMIC ACID], for which the inhibition in [1] was found to be 38.9%. For the same molecule, the inhibition at 30 µM in [2] turned out to be 35.5%.
With `Cc1ccc(S(=O)(=O)n2c(COCc3ccccc3Nc3cccc(C)c3C)cc3ccccc32)cc1`, in series [1], the inhibition amounted to 39.9%.
The same measure, in the same setting: next, `CCc1ccc2c(c1)cc(COCc1ccccc1Nc1cccc(C)c1C)n2S(=O)(=O)c1ccc(C)cc1`: 32.1%.
Take `Cc1cccc(Nc2ccccc2COCc2cc3ccccc3n2S(C)(=O)=O)c1C`: in series [1], the inhibition came to 61.5%. The same molecule gave an inhibition at 30 µM in series [2] of 40.9%. In [3], the IC50 stood at 1.76 µM.
As for `Cc1ccc(S(=O)(=O)n2c(COCc3ccccc3Nc3cccc(C)c3C)cc3cc(Br)ccc32)cc1`, in series [1], the inhibition came to 24.6%.
Same read-out and setting: next, `Cc1ccc(S(=O)(=O)n2c(COCc3ccccc3Nc3cccc(C)c3C)cc3cc(Cl)ccc32)cc1`: 26.8%; `Cc1cc(C)c2c(c1)cc(COCc1ccccc1Nc1cccc(C)c1C)n2S(C)(=O)=O`: 37.3%.
The molecule `O=C(Nc1c(Cl)cncc1Cl)c1ccc(OC(F)F)c(OCC2CC2)c1` [ROFLUMILAST] registered an inhibition at 0.01 µM in series [8] of 88.3%. In series [9], this molecule came in with an inhibition of 91.6%.
Turning to `Cc1cccc(Nc2ccccc2COCc2cc3cc(Br)ccc3n2S(C)(=O)=O)c1C`, the inhibition in series [1] was determined as 40.4%.
